These results are taken from PubChem BioAssay (NCI).

The structures appear in SMILES notation.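 Step 1: Grow cells in 96-well plates. Step 2: Expose to compound for 48 hours at 5 concentrations. Step 3: Interpolate endpoints linearly; if unreached, use highest concentration. GI50 = concentration required for 50% inhibition of growth. At the TGI there is no net growth.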 A value given as a limit tells only on which side of the number the result lay.

Holding throughout (assay): DTP human tumour cell line panel, 48 h
For assay [1], the system named is A549 NSCLC.
The test system of assay [2] is OVCAR-8 ovarian.
Assay [3] relates to A498 renal.
The subject of assay [4] is SNB-75 CNS.
Assay [5] concerns SN12C renal.
For assay [6], the system named is SNB-19 CNS.
For assay [7], the system named is SW-620 colon.
For assay [8], the system named is HOP-62 NSCLC.
In assay [9] the test system is K-562 leukemia.
Assay [10] has as its system NCI-H460 lung.

By GI50 is commonly meant the concentration that inhibits growth by half. One may read the TGI as the concentration at which net growth stops. Lower therefore signals more potent growth arrest. `O=C1C(OCCOc2ccccc2)=C(OCCOc2ccccc2)C(=O)c2ccccc21`: the GI50 in [1] was 4.62 µM; in [2], > 100 µM; in assay [3] it was 18.2 µM; in [4] it was 20.1 µM; in assay [5], 4.38 µM; in assay [6], 11.1 µM. Besides, the GI50 in assay [7] is 4.7 µM; in assay [8], 9.26 µM; in assay [9] it was > 100 µM; in assay [10] it was 3.05 µM. Further, the total growth inhibition concentration (TGI) was > 100 µM in [1]; > 100 µM in [2]; > 100 µM in [3]; > 100 µM in assay [4]; 52 µM in [5]; > 100 µM in [6]. The TGI is > 100 µM in assay [7], > 100 µM in assay [8], > 100 µM in assay [9] and 10.5 µM in assay [10].
Take `c1cc(-c2cn3c(n2)SCC3)ccn1`: the TGI in [1], in assay [2], in assay [3], in assay [4], in assay [5] and in [6] was > 100 µM throughout. The TGI in assay [7] was > 57.7 µM; in assay [8], > 100 µM; in assay [9] it was > 31.6 µM; in [10], > 95.2 µM.
As to `Nc1n[nH]c2ccc([C@@H]3Nc4cc5c(cc4[C@H]4C6CCC(C6)[C@@H]34)C(=O)NC5)cc12` (some centres undefined), the GI50 is 1.56 µM in assay [1]; 0.445 µM in assay [2]; 0.13 µM in assay [3]; 0.718 µM in [4]; 0.473 µM in [5]; 0.57 µM in assay [6]. For the same molecule, the GI50 in assay [7] is 0.362 µM; in [8] it was 0.513 µM; in [9] it was 0.131 µM; in assay [10], 0.424 µM. Besides, the TGI in [1] is > 100 µM; in assay [2], > 100 µM; in [3] it was 0.737 µM; in assay [4], > 100 µM; in [5] it was > 100 µM; in [6], > 100 µM. Further, the TGI in assay [7], in [8], in assay [9] and in [10] was > 100 µM each time.
As to `CCOC(=O)/C(I)=C/c1cc(OC)c(OC)c(OC)c1`, the total growth inhibition concentration (TGI) in assay [1] is 22.5 µM; in [2] it was 38.8 µM; in assay [3], 91.3 µM; in assay [4], > 100 µM; in [5] it was 24.6 µM; in [6], 31.8 µM. For the same molecule, the TGI in [7] was 11.6 µM; in assay [8], 96.1 µM; in [9], > 100 µM; in [10], > 100 µM.
`CN1CCc2nc3sc(C(N)=O)c(N)c3c(-c3cccs3)c2C1`: the GI50 in [1] was 3.37 µM; in assay [2], 2.7 µM; in [3], 2.58 µM; in assay [4], 2.81 µM; in assay [5], 2.69 µM; in assay [6], 4.34 µM. Besides, the GI50 in assay [7] is 4.02 µM; in [8] it was 3.27 µM; in assay [9], 4.99 µM; in [10], 3.71 µM. In addition, the TGI in [1] was > 100 µM; in assay [2] it was > 100 µM; in assay [3], 7.27 µM; in assay [4], 8.03 µM; in assay [5] it was > 100 µM; in [6], > 100 µM. The TGI in assay [7], in assay [8], in assay [9] and in assay [10] was > 100 µM throughout.
`COc1ccc(OC(=O)CC2Cc3cc(OC)c(OC)c(OC)c3-c3ccc(SC)c(=O)cc32)cc1` (centres undefined): the TGI is > 100 µM in assay [1]; > 37.1 µM in [2]; 2.57 µM in [3]; > 100 µM in [4]; > 71.8 µM in assay [5]; > 100 µM in assay [6]. The TGI in assay [7] was > 39.7 µM; in assay [8] it was > 39 µM; in assay [9], > 100 µM; in assay [10], 4.99 µM.
Consider `COc1cc(C2(C)SCCCS2)cc(OC)c1OC`, for which the TGI in [1], in assay [2], in assay [3], in [4], in assay [5] and in assay [6] was > 100 µM each time. Further, the TGI in assay [7], in assay [8], in assay [9] and in assay [10] was > 100 µM each time.
Take `COc1ccc2c(c1)C(=O)c1c-2c(OCCN(C)C)nc2ccccc12`: the GI50 in [1] is 1.33 µM; in [2], 2.54 µM; in assay [3], 1.87 µM; in assay [4], 7.62 µM; in assay [5], 1.69 µM; in assay [6], 2.68 µM. Further, the GI50 in assay [7] was 0.823 µM; in assay [8], 2.29 µM; in assay [9] it was 1.6 µM; in assay [10], 1.15 µM. In addition, the TGI in [1] came to 4.54 µM; in assay [2] it was 11.9 µM; in assay [3] it was 10.7 µM; in assay [4], 21.6 µM; in assay [5], 10.6 µM; in assay [6] it was 12.4 µM. Further, the TGI in assay [7] worked out at 3.26 µM; in assay [8], 12.7 µM; in assay [9], 10.3 µM; in assay [10], 4.33 µM.
For the molecule `CCOC(=O)c1cc2c(cc1Cl)SC(=Nc1ccccc1)N(S(=O)(=O)c1ccc(Br)s1)S2(=O)=O`, the GI50 in assay [1] is 21.4 µM; in [2] it was 17 µM; in [3], 16.2 µM; in assay [4], 23.4 µM; in assay [5], 17.3 µM; in [6], 36.6 µM. Moreover, the GI50 in [7] was 16.6 µM; in assay [8], 23.3 µM; in [9], 4.73 µM; in assay [10] it was 19.4 µM. Moreover, the TGI in assay [1] is 53.8 µM; in assay [2], 39.3 µM; in [3], 34 µM; in [4], 60.8 µM; in assay [5], 33.9 µM; in assay [6], > 100 µM. In addition, the TGI in assay [7] worked out at 34.3 µM; in assay [8] it was 44.2 µM; in [9], 21.1 µM; in [10], 51.1 µM.
With `c1cc(N2CCN(c3ccc(C4=NCCCN4)cc3)CC2)ccc1C1=NCCCN1`, the GI50 in assay [1] was > 80.6 µM; in assay [2], > 95.7 µM; in [3], 29.2 µM; in [4], > 89.4 µM; in [5], > 100 µM; in [6], > 71.2 µM. The GI50 in [7] was > 62.6 µM; in assay [8] it was > 100 µM; in [9], > 65.5 µM; in assay [10], > 58.6 µM. In addition, the TGI in assay [1], in assay [2], in assay [3], in assay [4], in [5] and in assay [6] was > 100 µM each time. The total growth inhibition concentration (TGI) in assay [7], in [8], in assay [9] and in assay [10] was > 100 µM in each case.
For the molecule `CC(C)C[C@H](NC(=O)CCn1ccc2ccccc2c1=O)B(O)O`, the GI50 is 8.41 µM in assay [1]; 15.3 µM in [2]; 1.22 µM in assay [3]; 2.94 µM in [4]; 11.2 µM in assay [5]; 8.02 µM in [6]. Moreover, the GI50 in assay [7] was 3 µM; in [8], 4.51 µM; in assay [9], 4.97 µM; in assay [10] it was 13 µM. The TGI in assay [1] is > 100 µM; in assay [2] it was > 100 µM; in assay [3] it was 4.79 µM; in [4], 15.9 µM; in assay [5] it was 55.4 µM; in assay [6], > 100 µM. Moreover, the TGI is 12 µM in assay [7], 22.1 µM in [8], > 100 µM in assay [9] and 56.2 µM in assay [10].
On to `N#CNc1nc(N)c(-c2ccc(Cl)cc2)c(C(=O)Nc2nccs2)n1`, for which the TGI in [1], in assay [2], in assay [3], in assay [4], in assay [5] and in assay [6] was > 100 µM in each case. The TGI in assay [7], in [8], in assay [9] and in [10] was > 100 µM in each case.
For the molecule `O=C(Cc1nc2ccccc2o1)C(=O)Nc1cccc(C(F)(F)F)c1`, the TGI in assay [1], in [2], in assay [3], in assay [4], in [5] and in [6] was > 100 µM in each case. Further, the TGI in assay [7], in assay [8], in [9] and in assay [10] was > 100 µM each time.
For the molecule `Cn1ccnc1Oc1ccc(Cl)cc1`, the total growth inhibition concentration (TGI) was > 100 µM in assay [1]; 22.4 µM in [2]; 46.4 µM in assay [3]; 51.8 µM in [4]; 26.4 µM in assay [5]; > 100 µM in assay [6]. For the same molecule, the TGI was 26.4 µM in assay [7], 65.6 µM in [8], 42.3 µM in assay [9] and > 100 µM in assay [10].
As to `O=C(Nc1ccccc1OC(=O)c1ccccc1)c1ccccc1`, the GI50 in assay [1] was 16.5 µM; in [2] it was 6.35 µM; in assay [3], 12.7 µM; in assay [4], 7.72 µM; in assay [5], 28.1 µM; in assay [6] it was 25.1 µM. The GI50 in [7] was 4.25 µM; in [8], 18.8 µM; in assay [9], 3.22 µM; in [10], 3.26 µM. Besides, the TGI in [1] was > 100 µM; in assay [2], > 100 µM; in assay [3], 60.1 µM; in assay [4] it was > 100 µM; in [5], > 100 µM; in assay [6], > 100 µM. Moreover, the TGI in assay [7] was > 100 µM; in [8], > 100 µM; in [9] it was > 100 µM; in assay [10] it was 15.2 µM.
As for `Oc1cccc2c1NCCC2`, the GI50 in assay [1] was 0.111 µM; in [2], 0.129 µM; in assay [3] it was 2.57 µM; in assay [4] it was 0.159 µM; in [5] it was 0.121 µM; in assay [6] it was 0.164 µM. In addition, the GI50 in assay [7] is 0.133 µM; in [8] it was 0.146 µM; in [9], 0.141 µM; in [10], 0.103 µM. Besides, the TGI was > 32.2 µM in assay [1]; 22.3 µM in [2]; 9.07 µM in assay [3]; > 100 µM in [4]; > 76.2 µM in assay [5]; > 100 µM in assay [6]. For the same molecule, the TGI in [7] was > 100 µM; in assay [8], 42.5 µM; in assay [9], > 73.9 µM; in assay [10] it was 4.66 µM.
As for `O=Nc1c(-c2c(O)[nH]c3ncccc23)[nH]c2ccccc12`, the GI50 is 5.71 µM in [1]; > 100 µM in assay [2]; 1.93 µM in assay [3]; 2.56 µM in assay [4]; 5.86 µM in assay [5]; > 100 µM in assay [6]. For the same molecule, the GI50 was 11.3 µM in assay [7], > 100 µM in assay [8] and 7.25 µM in [10]. The TGI in assay [1], in assay [2], in [3], in [4], in assay [5] and in [6] was > 100 µM each time. Besides, the TGI in [7], in assay [8], in [9] and in assay [10] was > 100 µM each time.
With `COC(=O)c1cc(-c2ccc(OC)c(OC)c2)[nH]c1N/N=C/c1c(Cl)cccc1Cl`, the GI50 in assay [1] is 0.948 µM; in [2] it was 1.31 µM; in [3] it was 0.532 µM; in assay [4], 0.379 µM; in assay [5] it was 0.969 µM; in [6], 0.673 µM. The GI50 in assay [7] is 0.443 µM; in assay [8], 1.17 µM; in assay [9], 0.46 µM; in assay [10], 0.379 µM. Also, the TGI worked out at 8.28 µM in assay [1]; 8.67 µM in assay [2]; 3.8 µM in assay [3]; 2.21 µM in [4]; 18.8 µM in [5]; 6.98 µM in assay [6]. Besides, the TGI is 12.7 µM in assay [7], 10.1 µM in assay [8], > 100 µM in [9] and 1.85 µM in assay [10].
